Patent US6291637A (priority 1999, dated 2001)
Where no end group is shown, it is not given here.

Tests used:
[1] = test system: cap-dependent translation (CAT RNA); assay type: biochemical
[2] = test system: poliovirus IRES-dependent translation (P2CAT RNA); assay type: biochemical
[3] = test system: poliovirus 5'-UTR (IRES)-mediated translation; assay type: biochemical

Molecule: 5' GCGCGGGCAGCGCA 3' (chemistry not given here) [BI-RNA]
- inhibition of cap-dependent translation of CAT (pG3CAT/pCAT) RNA [1]: not cap dependent-translation
- inhibition of poliovirus IRES-mediated translation of P2CAT RNA [2]: specifically inhibiting translation by internal initiation

Molecule: AALEAKICHQIEYYFGDF [LAP]
- entry into human cells (PV): appears to freely diffuse into human cells
- effect on cellular translation (cellular translation): does not interfere with cellular translation

B1: La protein (protein, UniProt P05455 1-408, looked up)
Lupus La protein: MAENGDNEKMAALEAKICHQIEYYFGDFNLPRDKFLKEQIKLDEGWVPLEIMIKFNRLNRLTTDFNVIVEALSKSKAELMEISEDKTKIRRSPSKPLPEVTDEYKNDVKNRSVYIKGFPTDATLDDIKEWLEDKGQVLNIQMRRTLHKAFKGSIFVVFDSIESAKKFVETPGQKYKETDLLILFKDDYFAKKNEERKQNKVEAKLRAKQEQEAKQKLEEDAEMKSLEEKIGCLLKFSGDLDDQTCREDLHILFSNHGEIKWIDFVRGAKEGIILFKEKAKEALGKAKDANNGNLQLRNKEVTWEVLEGEVEKEALKKIIEDQQESLNKWKSKGRRFKGKGKGNKAAQPGSGKGKVQFQGKKTKFASDDEHDEHDENGATGPVKRAREETDKEEPASKQQKTENGAGDQ
- effect on viral 5'-UTR-mediated translation [3]: Significant stimulation
- reversal of I-RNA-mediated inhibition of translation [3]: reversed
